According to US20260078119A1, “DEGRADER COMPOUNDS AND USES THEREOF” (Bristol-Myers Squibb Company, priority 2024, published 2026):

Assays:
FAK = target: T1, FAK (Homo sapiens, UniProt Q05397); assay: FAK-HiBiT Degradation Assay; assay type: cell-based; details: for DC50: JHH-4-FAK-HiBiT clone d01 cells, two hours incubation, 10-point dose response, 3-fold dilution starting at 1 μM, Nano-Glo HiBiT luminescence, read-out: FAK HiBiT EC50; for FAK HiBiT Ymin: lower limit of the four parameter fit (value A), Ymax derived using DMSO control, JHH-4-FAK-HiBiT cells, two hours
T1 construct: homozygous knock-in of a HiBiT tag (Promega Corporation, Madison, WI) to the C-terminus of the FAK gene in its natural genomic locus; endogenous in cells; host or cells: JHH-4-FAK-HiBiT clone d01 (CRISPR-Cas9 knock-in at the endogenous locus)
T1 sequence (Q05397 whole entry): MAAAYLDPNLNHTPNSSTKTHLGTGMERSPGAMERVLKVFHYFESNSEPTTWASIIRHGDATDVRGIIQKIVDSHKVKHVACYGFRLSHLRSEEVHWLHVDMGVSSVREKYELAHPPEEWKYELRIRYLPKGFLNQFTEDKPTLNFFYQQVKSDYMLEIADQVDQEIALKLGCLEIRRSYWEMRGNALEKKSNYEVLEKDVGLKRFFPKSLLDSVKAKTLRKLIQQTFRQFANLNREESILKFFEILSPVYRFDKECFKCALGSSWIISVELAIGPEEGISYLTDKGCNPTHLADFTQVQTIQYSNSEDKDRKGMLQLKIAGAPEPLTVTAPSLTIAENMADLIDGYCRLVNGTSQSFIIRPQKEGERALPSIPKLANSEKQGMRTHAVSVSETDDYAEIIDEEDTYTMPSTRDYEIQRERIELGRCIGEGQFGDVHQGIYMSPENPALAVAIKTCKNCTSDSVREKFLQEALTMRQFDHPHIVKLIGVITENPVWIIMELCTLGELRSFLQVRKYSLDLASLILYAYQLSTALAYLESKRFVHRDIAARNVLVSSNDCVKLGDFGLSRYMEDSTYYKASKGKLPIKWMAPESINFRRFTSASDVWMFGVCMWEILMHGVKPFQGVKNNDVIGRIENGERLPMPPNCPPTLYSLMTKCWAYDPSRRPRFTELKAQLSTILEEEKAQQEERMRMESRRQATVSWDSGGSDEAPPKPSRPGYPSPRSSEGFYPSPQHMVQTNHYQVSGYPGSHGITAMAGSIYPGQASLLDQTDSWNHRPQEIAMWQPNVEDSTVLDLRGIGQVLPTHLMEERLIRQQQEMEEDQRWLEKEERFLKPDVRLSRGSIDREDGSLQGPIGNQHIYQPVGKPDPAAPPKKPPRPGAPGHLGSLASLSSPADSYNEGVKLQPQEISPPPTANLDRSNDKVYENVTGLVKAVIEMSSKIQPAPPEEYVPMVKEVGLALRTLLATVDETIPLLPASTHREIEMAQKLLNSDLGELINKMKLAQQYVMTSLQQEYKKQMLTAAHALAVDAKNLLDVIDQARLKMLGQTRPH
Outline: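 Degradation read out by HiBiT lytic luminescence after 2 h compound exposure (top concentration 1 μM, 3-fold, 10 points) in JHH-4 clone d01 bearing endogenous FAK-HiBiT knock-in. Four-parameter logistic fit gave EC50 and Ymin; DMSO wells defined Ymax.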

CAL-51 cells = assay: CAL-51 Cell Proliferation Assay; assay type: cell-based; details: for EC50: Homo sapiens, 120 hours incubation, 10-point dose response, 4-fold dilutions starting at 10 μM, Cell-Titer-Glo, read-out: CAL-51 Prolif EC50; for CAL-51 Prolif Ymin: minimal percent of DMSO control observed in the concentrations tested (Ymin-obs), 120 hours
Outline: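 EC50 comes from a four-parameter logistic fit of blank-corrected, DMSO-normalised CellTiter-Glo signal after 120 h growth (37 °C, 350 cells/well, RPMI complete medium). Compounds ran as 10-point 4-fold series starting at 10 μM, duplicate, 0.1% DMSO. Ymin-obs records the minimal percent of DMSO control observed.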

SMILES | DC50 (FAK) [nM] | FAK HiBiT Ymin (FAK) | EC50 (CAL-51 cells) [nM] | CAL-51 Prolif Ymin (CAL-51 cells)
O=C1CC[C@H](N2Cc3c(ccc(Cn4ncc5c(-c6ncc(F)cc6Cl)cc(N6CC(F)C6)nc54)c3F)C2=O)C(=O)N1 (single isomer, unassigned) [Example 61] | 3.6 | 7.65 | 7.1 | 35.56
O=C1CC[C@H](N2Cc3cc(Cn4ncc5c(-c6ncc(F)cc6Cl)cc(N6CC(F)C6)nc54)cc(F)c3C2=O)C(=O)N1 [Example 42, (3S)-3-(5-{[4-(3-chloro-5-fluoropyridin-2-yl)-6-(3-fluoroazetidin-1-yl)-1H-pyrazolo[3,4-b]pyridin-1-yl]methyl}-7-fluoro-1-oxo-2,3-dihydro-1H-isoindol-2-yl)piperidine-2,6-dione] | 1.24 | 5.70 | 1.92 | 24.80
CCc1cc2c(-c3ncc(C(F)(F)F)cc3Cl)cc(N3CC(F)C3)nc2n1Cc1ccc2c(c1)CN(C1CCC(=O)NC1=O)C2=O (stereo not drawn) [Example 16, 3-(5-((4-(3-chloro-5-(trifluoromethyl)pyridin-2-yl)-2-ethyl-6-(3-fluoroazetidin-1-yl)-1H-pyrrolo[2,3-b]pyridin-1-yl)methyl)-1-oxoisoindolin-2-yl)piperidine-2,6-dione] | ≥ 1000 | 96.37 | 298 | 81.53
CN(c1cc(-c2ncc(C(F)(F)F)cc2Cl)c2cnn(Cc3ccc4c(c3)CN([C@H]3CCC(=O)NC3=O)C4=O)c2n1)C1CC(C)(O)C1 (stereo partly drawn) [Example 83, (3S)-3-[5-({4-[3-chloro-5-(trifluoromethyl)pyridin-2-yl]-6-{methyl[(1r,3s)-3-hydroxy-3-methylcyclobutyl]amino}-1H-pyrazolo[3,4-b]pyridin-1-yl}methyl)-1-oxo-2,3-dihydro-1H-isoindol-2-yl]piperidine-2,6-dione] | 10.2 | 10.27 | 5.41 | 30.14
CN(c1cc(-c2ncc(C(F)(F)F)cc2Cl)c2cnn(Cc3ccc4c(c3)CN([C@H]3CCC(=O)NC3=O)C4=O)c2n1)C1COC1 [Example 99, (3S)-3-[5-({4-[3-chloro-5-(trifluoromethyl)pyridin-2-yl]-6-[methyl(oxetan-3-yl)amino]-1H-pyrazolo[3,4-b]pyridin-1-yl}methyl)-1-oxo-2,3-dihydro-1H-isoindol-2-yl]piperidine-2,6-dione] | 25.3 | 13.33 | 117 | 36.78
CN(c1cc(-c2ncc(C(F)(F)F)cc2Cl)c2cnn(Cc3ccc4c(c3)CN([C@H]3CCC(=O)NC3=O)C4=O)c2n1)[C@H]1C[C@H](O)C1 [Example 81, (3S)-3-[5-({4-[3-chloro-5-(trifluoromethyl)pyridin-2-yl]-6-{methyl[(1r,3r)-3-hydroxycyclobutyl]amino}-1H-pyrazolo[3,4-b]pyridin-1-yl}methyl)-1-oxo-2,3-dihydro-1H-isoindol-2-yl]piperidine-2,6-dione] | 9.57 | 12.82 | 6.37 | 38.16
CC(C)Nc1nc2c(cnn2Cc2ccc3c(c2)CN([C@H]2CCC(=O)NC2=O)C3=O)c(-c2ncc(F)cc2Cl)c1F (single isomer, unassigned) [Example 9] | 0.55 | 9.43 | 0.46 | 22.89
CN(c1cc(-c2ncc(F)cc2Cl)c2cnn(Cc3ccc4c(c3)CN(C3CCC(=O)NC3=O)C4=O)c2n1)C(F)(F)F (stereo not drawn) [Example 53, 3-(5-{[4-(3-chloro-5-fluoropyridin-2-yl)-6-[methyl (trifluoromethyl)amino]-1H-pyrazolo[3,4-b]pyridin-1-yl]methyl}-1-oxo-2,3-dihydro-1H-isoindol-2-yl)piperidine-2,6-dione] | 2.45 | 7.24 | 9.88 | 39.88
N#Cc1ccc(-c2c(Cl)c(N3CC(F)C3)nc3c2cnn3Cc2ccc3c(c2)CN(C2CCC(=O)NC2=O)C3=O)c(F)c1 (stereo not drawn) [Example 10, 4-(5-chloro-1-{[2-(2,6-dioxopiperidin-3-yl)-1-oxo-2,3-dihydro-1H-isoindol-5-yl]methyl}-6-(3-fluoroazetidin-1-yl)-1H-pyrazolo[3,4-b]pyridin-4-yl)-3-fluorobenzonitrile] | 0.56 | 6.93 | 75.4 | 33.21

Second part, led by results:

DC50 (FAK) [nM] | FAK HiBiT Ymin (FAK) | SMILES | EC50 (CAL-51 cells) [nM] | CAL-51 Prolif Ymin (CAL-51 cells)
4.63 | 7.72 | Cc1cc(OC(F)F)cnc1-c1cc(N2CC(F)C2)nc2c1cnn2Cc1ccc2c(c1)CN([C@H]1CCC(=O)NC1=O)C2=O [Example 66, (3S)-3-[5-({4-[5-(difluoromethoxy)-3-methylpyridin-2-yl]-6-(3-fluoroazetidin-1-yl)-1H-pyrazolo[3,4-b]pyridin-1-yl}methyl)-1-oxo-2,3-dihydro-1H-isoindol-2-yl]piperidine-2,6-dione] | 1.72 | 27.43
19.9 | 22.15 | O=C1CC[C@H](N2Cc3cc(Cn4ncc5c(-c6ccc(F)cc6F)cc(N6CC[C@H](O)C6)nc54)ccc3C2=O)C(=O)N1 [Example 95, (3S)-3-(5-{[4-(2,4-difluorophenyl)-6-[(3S)-3-hydroxypyrrolidin-1-yl]-1H-pyrazolo[3,4-b]pyridin-1-yl]methyl}-1-oxo-2,3-dihydro-1H-isoindol-2-yl)piperidine-2,6-dione] | 13.5 | 46.68
6.88 | 8.00 | CCOc1cnc(-c2cc(N3CC(F)C3)nc3c2cnn3Cc2ccc3c(c2)CN(C2CCC(=O)NC2=O)C3=O)c(CC)c1 (stereo not drawn) [Example 74, 3-(5-{[4-(5-ethoxy-3-ethylpyridin-2-yl)-6-(3-fluoroazetidin-1-yl)-1H-pyrazolo[3,4-b]pyridin-1-yl]methyl}-1-oxo-2,3-dihydro-1H-isoindol-2-yl)piperidine-2,6-dione] | 4.11 | 34.11
0.67 | 7.50 | CN(C)c1cc(-c2ccc(C#N)cc2Cl)c2cnn(Cc3ccc4c(c3)CN(C3CCC(=O)NC3=O)C4=O)c2n1 (stereo not drawn) [Example 12, 3-chloro-4-[6-(dimethylamino)-1-{[2-(2,6-dioxopiperidin-3-yl)-1-oxo-2,3-dihydro-1H-isoindol-5-yl]methyl}-1H-pyrazolo[3,4-b]pyridin-4-yl]benzonitrile] | 0.99 | 23.97
0.42 | 6.93 | CN(C)c1cc(-c2ncc(C(F)(F)F)cc2Cl)c2cnn(Cc3ccc4c(c3)CN(C3CCC(=O)NC3=O)C4=O)c2n1 (stereo not drawn) [Example 5, 3-[5-({4-[3-chloro-5-(trifluoromethyl)pyridin-2-yl]-6-(dimethylamino)-1H-pyrazolo[3,4-b]pyridin-1-yl}methyl)-1-oxo-2,3-dihydro-1H-isoindol-2-yl]piperidine-2,6-dione] | 0.36 | 29.57
1.87 | 8.06 | O=C1CCC(N2Cc3cc(Cn4ncc5c(-c6ccc(C(F)(F)F)cc6Cl)cc(N6CC(F)C6)nc54)ccc3C2=O)C(=O)N1 (stereo not drawn) [Example 48, 3-[5-({4-[2-chloro-4-(trifluoromethyl)phenyl]-6-(3-fluoroazetidin-1-yl)-1H-pyrazolo[3,4-b]pyridin-1-yl}methyl)-1-oxo-2,3-dihydro-1H-isoindol-2-yl]piperidine-2,6-dione] | 0.52 | 19.89
0.89 | 7.90 | Cc1nc2c(-c3ccc(C(F)(F)F)cc3Cl)cc(N3CC(F)C3)nc2n1Cc1ccc2c(c1)CN(C1CCC(=O)NC1=O)C2=O (stereo not drawn) [Example 20, 3-(5-((7-(2-chloro-4-(trifluoromethyl)phenyl)-5-(3-fluoroazetidin-1-yl)-2-methyl-3H-imidazo[4,5-b]pyridin-3-yl)methyl)-1-oxoisoindolin-2-yl)piperidine-2,6-dione] | 0.37 | 24.38
35.7 | 27.68 | CC(C)(O)c1ccc(-c2cc(N3CCC3)nc3c2cnn3Cc2ccc3c(c2)CN(C2CCC(=O)NC2=O)C3=O)c(Cl)c1 (stereo not drawn) [Example 105, 3-(5-{[6-(azetidin-1-yl)-4-[2-chloro-4-(2-hydroxypropan-2-yl)phenyl]-1H-pyrazolo[3,4-b]pyridin-1-yl]methyl}-1-oxo-2,3-dihydro-1H-isoindol-2-yl)piperidine-2,6-dione] | 4.91 | 55.87
55.7 | 14.15 | O=C1CCC(N2Cc3cc(Cn4ncc5c(-c6ncc(F)cc6Cl)cc(N6CC[C@@H](O)C6)nc54)ccc3C2=O)C(=O)N1 (stereo partly drawn) [Example 114, 3-(5-{[4-(3-chloro-5-fluoropyridin-2-yl)-6-[(3R)-3-hydroxypyrrolidin-1-yl]-1H-pyrazolo[3,4-b]pyridin-1-yl]methyl}-1-oxo-2,3-dihydro-1H-isoindol-2-yl)piperidine-2,6-dione] | 35 | 40.82
